Assay results: PMC3902031 (Bioorganic & medicinal chemistry, 2013)
pIC50: −log10 of the molar value. Several values for one entry are separate records, joined by “and”; a condition that tells them apart may be missing. Identical values can stand only once. Like-named read-outs stand apart in the source and are kept apart here.

How the values were obtained:
[1] = molecular target: T1, TcFPPS (T. cruzi farnesyl pyrophosphate synthase) (Trypanosoma cruzi, UniProt Q8WS26); assay: TcFPPS enzymatic activity inhibition; format: biochemical
T1 sequence (Q8WS26 1-425): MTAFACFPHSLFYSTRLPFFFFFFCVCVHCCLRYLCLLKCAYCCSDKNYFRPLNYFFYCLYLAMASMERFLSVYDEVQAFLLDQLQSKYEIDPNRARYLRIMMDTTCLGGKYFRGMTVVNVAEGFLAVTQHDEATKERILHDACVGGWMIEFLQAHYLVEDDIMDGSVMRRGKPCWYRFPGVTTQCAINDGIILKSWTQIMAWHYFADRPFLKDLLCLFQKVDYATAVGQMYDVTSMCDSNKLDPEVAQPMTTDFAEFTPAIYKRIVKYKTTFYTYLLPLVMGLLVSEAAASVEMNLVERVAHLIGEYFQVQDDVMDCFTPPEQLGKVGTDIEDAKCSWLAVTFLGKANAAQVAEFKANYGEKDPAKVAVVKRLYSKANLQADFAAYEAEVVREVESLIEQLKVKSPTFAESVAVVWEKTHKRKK

[2] = system: T. cruzi amastigotes; assay: T. cruzi amastigote assays; format: cell-based, Trypanosoma cruzi
[3] = system: T. gondii tachyzoites; assay: T. gondii tachyzoites assays; format: cell-based, Toxoplasma gondii
[4] = molecular target: T1, TcFPPS (T. cruzi farnesyl pyrophosphate synthase); details: cited from earlier work
[5] = system: T. cruzi amastigotes; details: cited from earlier work
[6] = system: T. gondii tachyzoites; details: positive control; cited from earlier work

## CCCCCCNCC(O)(P(=O)(O)O)P(=O)(O)O [Compound 28, 1-[(n-Hexylamino)ethyl]-1-hydroxy-1,1-bisphosphonic Acid]
[1]
  pIC50: < 5.00
[2]
  ED50 T. cruzi amastigotes: > 20 µM
[3]
  ED50 T. gondii tachyzoites: 4.7 µM and 4.68 ± 1.19 µM

## CCCCCCCCC(F)(P(=O)(O)O)P(=O)(O)O [Compound 10]
[4]
  activity against TcFPPS: devoid
[5]
  cellular activity against T. cruzi: devoid of cellular activity

## O=C(Cn1ccnc1[N+](=O)[O-])NCc1ccccc1 [Benznidazole, reference compound]
[2]
  ED50 T. cruzi amastigotes: 1.44 ± 0.97 µM
[5]
  ED50 intracellular T. cruzi proliferation: 2.77 µM

## CCCCCCCCNCC(O)(P(=O)(O)O)P(=O)(O)O [Compound 30, 1-[(n-Octylamino)ethyl]-1-hydroxy-1,1-bisphosphonic Acid]
[3]
  ED50 T. gondii tachyzoites: 2.0 µM and 2.00 ± 0.95 µM

## CCCCCCNCC(P(=O)(O)O)P(=O)(O)O [Compound 12]
[5]
  ED50 against T. cruzi (amastigotes): 0.84 µM

## CCCCCCCCCCNCC(O)(P(=O)(O)O)P(=O)(O)O [Compound 31, 1-[(n-Decylamino)ethyl]-1-hydroxy-1,1-bisphosphonic Acid]
[1]
  pIC50: < 5.00
[3]
  T. gondii tachyzoites, % at 10 μM (printed in the ED50 column): 14.9% at 10 μM

## CCCCCNCC(O)(P(=O)(O)O)P(=O)(O)O [Compound 27, 1-[(n-Pentylamino)ethyl]-1-hydroxy-1,1-bisphosphonic Acid]
[1]
  pIC50: < 5.00
[2]
  ED50 T. cruzi amastigotes: > 20 µM
[3]
  ED50 T. gondii tachyzoites: > 10 µM

## CCCCCCCCCC(F)(P(=O)(O)O)P(=O)(O)O [Compound 11]
[4]
  activity against TcFPPS: devoid
[5]
  cellular activity against T. cruzi: devoid of cellular activity

## O=P(O)(O)C(O)(Cc1cccnc1)P(=O)(O)O [Risedronate, risedronate]
[6]
  ED50 T. gondii tachyzoites: 2.4 μM and 2.4 ± 0.7[24] μM
[5]
  ED50 T. cruzi amastigotes: 55.0 ± 5.0[53] μM

## CCCCCCCNCC(O)(P(=O)(O)O)P(=O)(O)O [Compound 29, 1-[(n-Heptylamino)ethyl]-1-hydroxy-1,1-bisphosphonic Acid]
[2]
  ED50 T. cruzi amastigotes: > 20 µM
[3]
  T. gondii tachyzoites, % at 10 μM (printed in the ED50 column): 0.00% at 10 μM

## CCCCCCCCCCCCNCC(P(=O)(O)O)P(=O)(O)O [Compound 14]
[5]
  ED50 intracellular T. cruzi proliferation: 0.67 µM
